In patent US5972351A, “Plasmodium falciparum MHC class I-restricted CTL epitopes derived from pre-erythrocytic stage antigens” (Isis Innovation Limited, priority 1992, dated 1999):

How the values were obtained:
B53 matched target cells = test: CTL assay with HIV-2 gag restimulated CTL; type: cell-based, human; details: CTL from one HLA-B53 positive HIV-2 infected Gambian
HLA-B53 = target: T1, HLA-B53 (Homo sapiens, UniProt P01889, A329T/A93T/A95T/C349S/D201E/D98Y/E176V/E187L/E204Q/E69T/G107R/I218V/K202T/L105A/L119I/N104I/Q94N/R106L/R155S/R180L/S101N/S121R/S35A/S48A/T118I/V127L/V306I/V36M/Y140S/Y91F); test: HLA assembly assay (peptide binding to HLA-B53); details: lysates of T2-B53 cells; all peptides initially tested at 4 μM
T1 construct: by transfection with a genomic clone of HLA-B53 using hygromycin selection; expressed in transfected cells; host or cells: T2-B53 (T2 cells transfected with a genomic clone of HLA-B53); lysates of 35S-methionine-labelled cells
Description: Briefly, the mutant cell line T2-B53 was derived from T2 cells of HLA type, HLA-A2, -B51, by transfection with a genomic clone of HLA-B53 using hygromycin selection. […] Peptide concentrations were determined with a Micro BCA colourimetric assay (Pierce). Peptides were added to lysates of ^35 S-methionine-labelled cells and incubated overnight at 4° C.^36. Stable assembled class I molecules were then precipitated with monoclonal antibodies W6/32^34 (reactive with all assembled class I molecules) or MHM5^41 (reactive with assembled HLA-B but not HLA-A molecules).

ALSEGCTPYDINQMLNNCVGD [P1]
recognition of peptide-pulsed targets by HIV 2-gag restimulated CTL (B53 matched target cells): recognised | binding to HLA-B53 in the HLA assembly assay (HLA-B53): positive result
